Structures can show the parent of a compound that is named as a salt.
What was measured:
Format in all cases: in vivo
Smilax china = assay: Foliage treatment of naturally growing weeds and brush (Example 9); parameters: key: 0 indicates no effect; 5 indicates complete kill; details: Plant No. 17 Smilax china, One month
Excerpt: (§1) Aqueous solutions of Phosalacine (Na salt) at different concentrations and 0.1% of octylphenylpolyoxy ethanol as surfactant were applied to the area where various weeds and brush were naturally growing at a rate of 1500 liter per hectare. One month after the foliage treatment, damage to weeds and brush was visually assessed on a scale of from 0 to 5 where 0 indicates no effect and 5 indicates complete kill as hereinbefore defined.

Zanthoxylum piperitum = assay: as above; parameters: key: 0 indicates no effect; 5 indicates complete kill; details: Plant No. 19 Zanthoxylum piperitum, One month
Excerpt: as §1

Castanea crenata = assay: as above; parameters: key: 0 indicates no effect; 5 indicates complete kill; details: Plant No. 8 Castanea crenata, One month
Excerpt: as §1

Pteridium aquilinum = assay: as above; parameters: key: 0 indicates no effect; 5 indicates complete kill; details: Plant No. 20 Pteridium aquilinum, One month
Excerpt: as §1

Viburnum dilatatum = assay: as above; parameters: key: 0 indicates no effect; 5 indicates complete kill; details: Plant No. 21 Viburnum dilatatum, One month
Excerpt: as §1

Rubus palmatus = assay: as above; parameters: key: 0 indicates no effect; 5 indicates complete kill; details: Plant No. 18 Rubus palmatus, One month
Excerpt: as §1

[1] = tested on: various weeds and brush (overall evaluation); assay: as above; parameters: key: 0 indicates no effect; 5 indicates complete kill; details: OE overall evaluation, One month
Excerpt: as §1

Artemisia princeps = assay: Foliage treatment (Example 8); parameters: key: 0 indicates no effect; 5 indicates complete kill; details: Plant No. 1 Artemisia princeps
Description: (§2) Aqueous solutions of Phosalacine (Na salt) at different concentrations were applied at a rate of 1500 liters per hectare to naturally occurring plants or plants which were cultured on plates as shown in the following Table at certain stages of growth. […]

Cucumis sativus = assay: Foliage treatment (Example 8); parameters: key: 0 indicates no effect; 5 indicates complete kill; details: Plant No. 33 Cucumis sativus
Description: as §2

Allium fistulosum = assay: Foliage treatment (Example 8); parameters: key: 0 indicates no effect; 5 indicates complete kill; details: Plant No. 27 Allium fistulosum
Description: as §2

Arctium lappa = assay: Foliage treatment (Example 8); parameters: key: 0 indicates no effect; 5 indicates complete kill; details: Plant No. 30 Arctium lappa, 14 days
Description: as §2

Oxalis corniculata = assay: Foliage treatment (Example 8); parameters: key: 0 indicates no effect; 5 indicates complete kill; details: Plant No. 35 Oxalis corniculata
Description: as §2

Glycine max = assay: Foliage treatment (Example 8); parameters: key: 0 indicates no effect; 5 indicates complete kill; details: Plant No. 34 Glycine max
Description: as §2

Euphonia supina = assay: Foliage treatment (Example 8); parameters: key: 0 indicates no effect; 5 indicates complete kill; details: Plant No. 36 Euphonia supina
Description: as §2

Miscanthus sinensis = assay: Foliage treatment (Example 8); parameters: key: 0 indicates no effect; 5 indicates complete kill; details: Plant No. 5 Miscanthus sinensis
Description: as §2

[2] = tested on: Eleucine indica var. carocana; assay: Foliage treatment (Example 8); parameters: key: 0 indicates no effect; 5 indicates complete kill; details: Plant No. 24 Eleucine indica var. carocana
Description: as §2

Brassica oleracea = assay: Foliage treatment (Example 8); parameters: key: 0 indicates no effect; 5 indicates complete kill; details: Plant No. 28 Brassica oleracea
Description: as §2

Chamaecyparis obtusa = assay: Foliage treatment of woody plants (Example 10); parameters: key to damage to the plants, scale 0 to 5: 0 indicates no effect; 5 indicates complete kill; details: CH Chamaecyparis obtusa
Excerpt: (§3) Aqueous solutions containing Phosalacine (Na salt) at different concentrations and 0.1% of octylphenylpolyoxy ethanol as surfactant were applied at a rate of 1500 liter per hectare to woody plants of about 60-70 cm in height. 7 and 14 days after the foliage treatment, damage to the plants was visually assessed on a scale of from 0 to 5 (cf. Example 7).

Cryptomeria japonica = assay: Foliage treatment of woody plants (Example 10); parameters: key to damage to the plants, scale 0 to 5: 0 indicates no effect; 5 indicates complete kill; details: CP Cryptomeria japonica
Excerpt: as §3

CC(C)C[C@H](NC(=O)[C@H](C)NC(=O)[C@@H](N)CCP(C)(=O)O)C(=O)O [Phosalacine (Na salt)]
3: damage to weeds and brush, scale 0 to 5 (Smilax china; 0.05%) | damage to weeds and brush, scale 0 to 5 (Zanthoxylum piperitum; 0.05%) | damage to weeds and brush, scale 0 to 5 (Castanea crenata; 0.05%) | damage to weeds and brush, scale 0 to 5 (Pteridium aquilinum; 0.05%) | damage to weeds and brush, scale 0 to 5 (Viburnum dilatatum; 0.05%) | damage to weeds and brush, scale 0 to 5 (Rubus palmatus; 0.05%) | damage to weeds and brush, scale 0 to 5 ([1]; 0.05%) | damage to the plants, scale 0 to 5 (Artemisia princeps; 0.05%, 7 days) | damage to the plants, scale 0 to 5 (Cucumis sativus; 0.05%, 7 days) | damage to the plants, scale 0 to 5 (Allium fistulosum; 0.05%, 7 days) | damage to the plants, scale 0 to 5 (Oxalis corniculata; 0.05%, 7 days) | damage to the plants, scale 0 to 5 (Glycine max; 0.05%, 7 days) | damage to the plants, scale 0 to 5 (Euphonia supina; 0.05%, 7 days) | damage to the plants, scale 0 to 5 (Miscanthus sinensis; 0.05%, 7 days) | damage to the plants, scale 0 to 5 ([2]; 0.05%, 7 days) | damage to the plants, scale 0 to 5 (Brassica oleracea; 0.05%, 7 days)
0: damage to the plants, scale 0 to 5 (Chamaecyparis obtusa; 0.125%, 7 days) | damage to the plants, scale 0 to 5 (Chamaecyparis obtusa; 0.125%, 14 days) | damage to the plants, scale 0 to 5 (Chamaecyparis obtusa; 0.25%, 7 days) | damage to the plants, scale 0 to 5 (Chamaecyparis obtusa; 0.25%, 14 days) | damage to the plants, scale 0 to 5 (Chamaecyparis obtusa; 0.5%, 7 days) | damage to the plants, scale 0 to 5 (Chamaecyparis obtusa; 0.5%, 14 days) | damage to the plants, scale 0 to 5 (Cryptomeria japonica; 0.125%, 7 days) | damage to the plants, scale 0 to 5 (Cryptomeria japonica; 0.125%, 14 days) | damage to the plants, scale 0 to 5 (Cryptomeria japonica; 0.25%, 7 days) | damage to the plants, scale 0 to 5 (Cryptomeria japonica; 0.5%, 7 days)
4: damage to the plants, scale 0 to 5 (Artemisia princeps; 0.05%, 14 days) | damage to the plants, scale 0 to 5 (Cucumis sativus; 0.05%, 14 days) | damage to the plants, scale 0 to 5 (Arctium lappa; 0.05%) | damage to the plants, scale 0 to 5 (Oxalis corniculata; 0.05%, 14 days) | damage to the plants, scale 0 to 5 (Euphonia supina; 0.05%, 14 days) | damage to the plants, scale 0 to 5 (Miscanthus sinensis; 0.05%, 14 days) | damage to the plants, scale 0 to 5 ([2]; 0.05%, 14 days) | damage to the plants, scale 0 to 5 (Brassica oleracea; 0.05%, 14 days)
5: damage to weeds and brush, scale 0 to 5 (Smilax china; 0.1%) | damage to weeds and brush, scale 0 to 5 (Smilax china; 0.2%) | damage to weeds and brush, scale 0 to 5 (Zanthoxylum piperitum; 0.1%) | damage to weeds and brush, scale 0 to 5 (Zanthoxylum piperitum; 0.2%) | damage to weeds and brush, scale 0 to 5 (Castanea crenata; 0.1%) | damage to weeds and brush, scale 0 to 5 (Castanea crenata; 0.2%) | damage to weeds and brush, scale 0 to 5 (Pteridium aquilinum; 0.1%) | damage to weeds and brush, scale 0 to 5 (Pteridium aquilinum; 0.2%) | damage to weeds and brush, scale 0 to 5 (Viburnum dilatatum; 0.1%) | damage to weeds and brush, scale 0 to 5 (Viburnum dilatatum; 0.2%) | damage to weeds and brush, scale 0 to 5 (Rubus palmatus; 0.1%) | damage to weeds and brush, scale 0 to 5 (Rubus palmatus; 0.2%) | damage to weeds and brush, scale 0 to 5 ([1]; 0.1%) | damage to weeds and brush, scale 0 to 5 ([1]; 0.2%) | damage to the plants, scale 0 to 5 (Artemisia princeps; 0.1%, 7 days) | damage to the plants, scale 0 to 5 (Artemisia princeps; 0.1%, 14 days) | damage to the plants, scale 0 to 5 (Cucumis sativus; 0.1%, 7 days) | damage to the plants, scale 0 to 5 (Cucumis sativus; 0.1%, 14 days) | damage to the plants, scale 0 to 5 (Allium fistulosum; 0.05%, 14 days) | damage to the plants, scale 0 to 5 (Allium fistulosum; 0.1%, 7 days) | damage to the plants, scale 0 to 5 (Allium fistulosum; 0.1%, 14 days) | damage to the plants, scale 0 to 5 (Arctium lappa; 0.1%) | damage to the plants, scale 0 to 5 (Oxalis corniculata; 0.1%, 7 days) | damage to the plants, scale 0 to 5 (Oxalis corniculata; 0.1%, 14 days) | damage to the plants, scale 0 to 5 (Glycine max; 0.05%, 14 days) | damage to the plants, scale 0 to 5 (Glycine max; 0.1%, 7 days) | damage to the plants, scale 0 to 5 (Glycine max; 0.1%, 14 days) | damage to the plants, scale 0 to 5 (Euphonia supina; 0.1%, 7 days) | damage to the plants, scale 0 to 5 (Euphonia supina; 0.1%, 14 days) | damage to the plants, scale 0 to 5 (Miscanthus sinensis; 0.1%, 7 days) | damage to the plants, scale 0 to 5 (Miscanthus sinensis; 0.1%, 14 days) | damage to the plants, scale 0 to 5 ([2]; 0.1%, 7 days) | damage to the plants, scale 0 to 5 ([2]; 0.1%, 14 days) | damage to the plants, scale 0 to 5 (Brassica oleracea; 0.1%, 7 days) | damage to the plants, scale 0 to 5 (Brassica oleracea; 0.1%, 14 days)
2: damage to the plants, scale 0 to 5 (Cryptomeria japonica; 0.5%, 14 days)
1: damage to the plants, scale 0 to 5 (Cryptomeria japonica; 0.25%, 14 days)
